Usually GI50 stands for the concentration that inhibits growth by half.

Molecules are shown by their SMILES.

For one test, the system named is HCT116 cells. Nature of the test: Anti-proliferation assay on cells (Cell-Titer Glo, 10 days). The test is classed as cell-based. Particulars: ratio of GI50 values. How it is done: Assay example 1: Method of anti-proliferation assay on cells
HCT116^MTAP Deletion cells were from Pharmaron (China); HCT116 cells were from ATCC; McCoy's 5A medium was purchased from Invitrogen (USA); penicillin-streptomycin and fetal bovine serum were purchased from Gibco (USA); a 384-well plate was purchased from PerkinElmer (USA); and Cell-Titer Glo reagent was purchased from Promega (USA).
Compound dissolution: All the compounds were dissolved in dimethyl sulfoxide (DMSO) and then stored. The compounds were stored at room temperature in a dry condition for 3 months for short term storage or at -20 °C for long term storage.
Cell culture and passaging
The cells were cultured strictly in accordance with ATCC requirements. The cell culture medium (McCoy's 5A medium + 10% fetal bovine serum + 1% penicillin + streptomycin) was transferred to a 15 mL centrifuge tube and centrifuged at 1000 rpm for 5 min. The supernatant was removed. The cells were resuspended with complete culture medium, inoculated into a culture dish at the required density, and cultured in an incubator at 37 °C, 95% humid air, and 5% carbon dioxide. The culture medium was replenished or the cells were passaged every 2-3 days depending on the cell growth condition.
Cell proliferation activity assay
When the confluency of cells in the culture dish reached about 90%, the cells were washed twice with PBS, and then treated with trypsin to become single cells. The cells were counted, and 40µl of the cells was inoculated into each well of a 384-well plate (50 cells/well). The plate was equilibrated at 37 °C and 5% carbon dioxide for 10 to 15 minutes. The compounds were injected into the 384-well plate using Echo550, and positive control and negative control (0.1% DMSO) were set up. Each compound was subjected to a 3-fold dilution, resulting in 10 concentration gradients, in duplicate, and the content of DMSO was 0.1%. The 384-well plate was incubated in a cell culture incubator for 10 days.
Then, 40 µl of cell proliferation assay reagent (CTG) was added to the 384-well plate, and the plate was shaken to mix well. Then, the 384-well plate was incubated at 37 °C and 5% carbon dioxide in the dark for 30 minutes. The data were read using the Envision multifunctional microplate reader. […] According to the different drug concentrations and their corresponding inhibition rates, the GI50 curve was drawn using GraphPad 8.0 software. The data were analyzed, and the final IC50 value was obtained.
In addition, the compounds of the present disclosure also have selectivity for mutant HCT116 cells. […] The selectivity data of representative compounds are shown in Table 2: Table 2 Selectivity data of representative compounds
`CC(C)C(C)N(Cc1ccc(C(F)(F)F)cn1)C(=O)C(=O)Nc1cnc(N)c2c1cnn2C` (stereo not shown) [Example 110-P1]: the “Selectivity multiple of HCT116^MTAP WT GI50/ HCT116^MTAP Deletion GI50” value (“Selectivity multiple” below) is recorded as 146.
On the same count and under the same terms, in the case of `CCC(C)N(Cc1ccc(OC(F)(F)F)cn1)C(=O)C(=O)Nc1cnc(N)c2c1cnn2C` (stereo not shown) [Example 113] it was 125.
As for `CN(C(=O)C(=O)Nc1cnc(N)c2c1cnn2C)C1COCc2cc(C#N)ccc21` (stereo not shown) [Example 111], the “Selectivity multiple” value was found to be 354.
Still for that read-out and setting: in the case of `Cc1ncc(-c2ccc3c(c2)COCC3N(C)C(=O)C(=O)Nc2cnc(N)c3c2cnn3C)s1` (stereo not shown) [Example 181-P1] it was 247; in that of `CN(C(=O)C(=O)Nc1cnc(N)c2c1cnn2C)C1COCc2cc(-c3cccnc3)ccc21` (stereo not shown) [Example 95], 224.
On the same count and under the same terms, the result for `CC1OCC(N(C)C(=O)C(=O)Nc2cnc(N)c3c2cnn3C)c2ccc(C(F)(F)F)cc21` (single isomer, unassigned) [Example 187-P1] reads 78; that for `CCC(C)N(Cc1ccc(-c2cnn(C)c2)cn1)C(=O)C(=O)Nc1cnc(N)c2c1cnn2C` (stereo not shown) [Example 90], 119.
Still for that read-out and setting: the result for `CC1OCC(N(C)C(=O)C(=O)Nc2cnc(N)c3c2cnn3C)c2ccc(C(F)(F)F)cc21` (single isomer, unassigned) [Example 187-P2] reads 59.
Turning to `CN(C(=O)C(=O)Nc1cnc(N)c2c1cnn2C)C1COCc2c1ccc(Cl)c2Cl` (stereo not shown) [Example 168-P1], the “Selectivity multiple” value is recorded as 147.
In the case of `CN(C(=O)C(=O)Nc1cnc(N)c2c1cnn2C)C1COc2cc(Cl)c(Cl)cc21` (stereo not shown) [Example 186-P1], the “Selectivity multiple” value was found to be 210.
On the same count and under the same terms, in the case of `CN(C(=O)C(=O)Nc1cnc(N)c2c1cnn2C)C1COCc2cc(Cl)c(Cl)cc21` (single isomer, unassigned) [Example 163-P1] it was 94.

For the next test, the system named is HCT116^MTAP Deletion cells. The test is described as above. The settings on record: 240 h, HCT116^MTAP Deletion cells, 10 days incubation, CTG readout; read-out: HCT116^MTAP Deletion GI50. The test is classed as cell-based. The method in brief: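 HCT116^MTAP Deletion cells seeded at 50 cells/well and exposed to 10-point 3-fold compound dilutions in duplicate (0.1% DMSO) for 10 days at 37 °C. Viability read by CellTiter-Glo luminescence; IC50 derived from GI50 curves of concentration versus inhibition.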
Take `CC(C)C(C)N(Cc1ccc(C(F)(F)F)cn1)C(=O)C(=O)Nc1cnc(N)c2c1cnn2C` (stereo not shown) [Example 110-P1]: the GI50 is below 10 nM.
On the same count and under the same terms, the result for `CCC(C)N(Cc1ccc(OC(F)(F)F)cn1)C(=O)C(=O)Nc1cnc(N)c2c1cnn2C` (stereo not shown) [Example 113] reads below 10 nM; that for `CN(C(=O)C(=O)Nc1cnc(N)c2c1cnn2C)C1COCc2cc(C#N)ccc21` (stereo not shown) [Example 111], below 10 nM.
`CN(C(=O)C(=O)Nc1cnc(N)c2c1cnn2C)C1COCc2cc(-c3cccnc3)ccc21` (stereo not shown) [Example 95]: the GI50 is below 10 nM.
Same read-out and setting: in the case of `CCC(C)N(Cc1ccc(-c2cnn(C)c2)cn1)C(=O)C(=O)Nc1cnc(N)c2c1cnn2C` (stereo not shown) [Example 90] it was below 10 nM; in that of `Cn1ncc2c(NC(=O)C(=O)N(Cc3ccc(C(F)(F)F)cn3)Cc3ccnc4[nH]ccc34)cnc(N)c21` [Example 50], below 10 nM.
The same measure, in the same setting: the result for `CN(C(=O)C(=O)Nc1cnc(N)c2c1cnn2C)C1COCc2cc(-c3ccccc3F)ccc21` (stereo not shown) [Example 215] reads below 10 nM; that for `Cc1ncc(-c2ccc3c(c2)OCC3N(C)C(=O)C(=O)Nc2cnc(N)c3c2cnn3C)s1` (stereo not shown) [Example 170], below 10 nM.
Same read-out and setting: in the case of `CN(C(=O)C(=O)Nc1cnc(N)c2c1cnn2C)C1COCc2cc(-c3ccnn3C3CC3)ccc21` (stereo not shown) [Example 232] it was below 10 nM; in that of `Cc1cc(NC(=O)C(=O)N(Cc2ccc(C(F)(F)F)nn2)[C@H](C)c2ncccn2)cnc1N` [Example 55], 100 to 1000 nM.
Consider `CCC(C)N(Cc1cnc(C(F)(F)F)nc1)C(=O)C(=O)Nc1cnc(N)c(C)c1` (stereo not shown) [Example 58], for which the GI50 was above 10000 nM.
On the same count and under the same terms, the result for `Cc1cc(-c2ccc3c(c2)COCC3N(C)C(=O)C(=O)Nc2cnc(N)c3c2cnn3C)on1` (stereo not shown) [Example 179] reads 10 to 100 nM.
Take `Cc1nn(C)cc1-c1ccc2c(c1)COCC2N(C)C(=O)C(=O)Nc1cnc(N)c2c1cnn2C` (stereo not shown) [Example 200]: the GI50 was below 10 nM.
As to `[2H]C([2H])([2H])N(C(=O)C(=O)Nc1cnc(N)c2c1cnn2C)C1COCc2cc(C(F)(F)F)ccc21` (stereo not shown) [Example 109], the GI50 was below 10 nM.
Still for that read-out and setting: the result for `COc1ncc(NC(=O)C(=O)N(C)C2COc3cc(C(F)(F)F)ccc32)cc1C(N)=O` (stereo not shown) [Example 142] reads 1000 to 10000 nM; that for `CN(C(=O)C(=O)Nc1cnc(N)c2c1cnn2C)C1CCOc2cc(C(F)(F)F)ccc21` (stereo not shown) [Example 127], 10 to 100 nM; that for `CCC(C)N(Cc1ccc(OC(F)(F)F)cn1)C(=O)C(=O)Nc1cnc(N)c(C)c1` (stereo not shown) [Example 92], 10 to 100 nM.
On to `CCC(C)N(Cc1ccc(C(F)(F)F)cn1)C(=O)C(=O)Nc1cnc(N)c2c1COC2` (stereo not shown) [Example 54], for which the 50% growth inhibitory concentration (GI50) was in the range of 10 to 100 nM.
As for `CC(C)N(C(=O)C(=O)Nc1cnc(N)c2c1cnn2C)C1COCc2cc(C(F)(F)F)ccc21` (stereo not shown) [Example 96], the GI50 lay in the range of 10 to 100 nM.
Still for that read-out and setting: in the case of `CCC(C)N(Cc1ccc(S(C)(=O)=O)cn1)C(=O)C(=O)Nc1cnc(N)c(C)c1` (stereo not shown) [Example 85] it was 100 to 1000 nM; in that of `CN1CCC(c2ccc3c(c2)COCC3N(C)C(=O)C(=O)Nc2cnc(N)c3c2cnn3C)CC1` (stereo not shown) [Example 139], 10 to 100 nM; in that of `CN(C(=O)C(=O)Nc1cnc(N)c2c1cnn2C)C1COCc2cc(-c3ccccc3)ccc21` (stereo not shown) [Example 226], below 10 nM.
Same read-out and setting: in the case of `CN(C(=O)C(=O)Nc1cnc(N)c2c1cnn2C)C1COc2cc(-c3ccc(C(F)(F)F)cn3)ccc21` (stereo not shown) [Example 177] it was 10 to 100 nM; in that of `C[C@H](C1CC1)N(Cc1ccc(C(F)(F)F)cn1)C(=O)C(=O)Nc1cnc(N)c2c1cnn2C` [Example 51], 10 to 100 nM.
The same measure, in the same setting: the result for `CN(C(=O)C(=O)Nc1cnc(N)c2c1COC2)C1COCc2cc(C(F)(F)F)ccc21` (stereo not shown) [Example 56] reads 10 to 100 nM; that for `COC(=O)N1CC=C(c2ccc(CN(C(=O)C(=O)Nc3cnc(N)c(C)c3)[C@H](C)c3ncccn3)nc2)CC1` [Example 84], 10 to 100 nM.
Turning to `CC(C)CN(C(=O)C(=O)Nc1cnc(N)c2c1cnn2C)C1COc2cc(C(F)(F)F)ccc21` (stereo not shown) [Example 122], the GI50 lay in the range of 10 to 100 nM.
Same read-out and setting: in the case of `CC1OCc2c(NC(=O)C(=O)N(Cc3ccc(C(F)(F)F)cn3)CC3CC3)cnc(N)c21` (stereo not shown) [Example 79] it was 100 to 1000 nM; in that of `CCc1ccc2c(c1)OCC2N(C)C(=O)C(=O)Nc1cnc(N)c2c1cnn2C` (stereo not shown) [Example 206], below 10 nM.

Staying with this test, now noted: HCT116^MTAP Deletion cells, 10 days incubation, CTG readout; read-out: HCT116^MTAP Deletion GI50.
`CN(C(=O)C(=O)Nc1cnc(N)c2c1cnn2C)C1COCc2nc(C(F)(F)F)ccc21` (single isomer, unassigned) [Example 152-P1]: the GI50 lay within 100 to 1000 nM.
The same measure, in the same setting: the result for `CN(C(=O)C(=O)Nc1cnc(N)c2c1cnn2C)C1COCc2cc(Br)ccc21` (racemic) [compound 182] reads below 10 nM; that for `CN(C(=O)C(=O)Nc1cnc(N)c2c1cnn2C)C1COCc2c1ccc(F)c2F` (stereo not shown) [Example 141-P1], 10 to 100 nM; that for `CN(C(=O)C(=O)Nc1cnc(N)c2c1cnn2C)C1COCc2cc(C3=CCC(F)(F)CC3)ccc21` (racemic) [compound 174], below 10 nM.
Regarding `Cc1cc(C2CC2C(=O)N(Cc2ccc(C(F)(F)F)cn2)[C@H](C)c2ncccn2)cnc1N` (stereo partly shown) [Example 7], the GI50 is above 10000 nM.
Consider `CCC(C)N(Cc1ccc(C(F)(F)F)cn1)C(=O)C(=O)Nc1cnc(OC)c(C(N)=O)c1` (single isomer, unassigned) [Example 5-P1], for which the GI50 was in the range of 10 to 100 nM.
Still for that read-out and setting: the result for `CN(C(=O)C(=O)Nc1cnc(N)c2c1cnn2C)C1COCc2cc(-c3ccnn3C)ccc21` (stereo not shown) [Example 137] reads below 10 nM.
The same measure, in the same setting: in the case of `Cc1cc(NC(=O)C(=O)N(Cc2ccc(C(F)(F)F)cn2)C2CC2)cnc1N` [Example 12] it was 100 to 1000 nM; in that of `C[C@H](c1ncccn1)N(Cc1ccc(C(F)(F)F)cn1)C(=O)C(=O)Nc1cnc(N)c2c1cnn2C` [Example 30], 10 to 100 nM; in that of `CN(C(=O)C(=O)Nc1cnc(N)c2c1cnn2C)C1COc2cc(-c3ccnn3C3CC3)ccc21` (stereo not shown) [Example 212], below 10 nM.
Regarding `Cc1cc(NC(=O)C(=O)N(Cc2ccc(N3CCC(F)(F)C3)cn2)[C@H](C)c2ncccn2)cnc1N` [Example 29], the GI50 lay within 100 to 1000 nM.
Turning to `C[C@H](c1ncccn1)N(Cc1ccc(C(F)(F)F)cn1)C(=O)C(=O)Nc1cnc(N)c2cncn12` [Example 38], the GI50 was above 10000 nM.
On the same count and under the same terms, the result for `CN(C(=O)C(=O)Nc1cnc(N)c2c1cnn2C)C1COCc2c1ccc(F)c2F` (stereo not shown) [Example 138] reads 10 to 100 nM.
Turning to `CCC(C)N(Cc1ccc(C(F)(F)F)cn1)C(=O)C(=O)Nc1cnc(N)c2c1cnn2C` (stereo not shown) [Example 52], the GI50 was below 10 nM.
In the case of `CC(c1cscn1)N(Cc1ccc(C(F)(F)F)cn1)C(=O)C(=O)Nc1cnc(N)c2c1cnn2C` (stereo not shown) [Example 44], the GI50 was in the range of 10 to 100 nM.

(Values after patent EP4563571A1, “PRMT5 INHIBITORS” (Beijing Earthwise Technology Co., Ltd., priority 2022, dated 2024).)
